Measurements published in article PMC8219378, “A putative structural mechanism underlying the antithetic effect of homologous RND1 and RhoD GTPases in mammalian plexin regulation” (eLife, 2021).

How the values were obtained:
[1] = target: T1, RhoD/plexin B2-RBD complex (Homo sapiens, UniProt O00212, Q75L); assay: X-ray crystal structure, […] Å; details: Mg2+; GTP-binding site of RhoD; RhoD loaded by EDTA exchange; complex with plexin B2 RBD
T1 construct: human RhoD 8-194 Q75L (catalytically dead), His6-tag removed by 3C protease, E. coli BL21(DE3); mouse plexin B2 intracellular region 1274-1842, tag removed, E. coli ArcticExpress(DE3), degraded in drops to RBD (1463-1565, domain-swapped dimer); with Plexin-B2 (Mus musculus)
T1 sequence (O00212 8-194 Q75L): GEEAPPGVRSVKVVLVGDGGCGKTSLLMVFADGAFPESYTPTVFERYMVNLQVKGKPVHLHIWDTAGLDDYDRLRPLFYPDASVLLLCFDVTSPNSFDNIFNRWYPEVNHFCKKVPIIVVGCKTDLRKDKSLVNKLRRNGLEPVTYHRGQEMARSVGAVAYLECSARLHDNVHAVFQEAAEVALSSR
T1 sequence (B2RXS4 1463-1565 partner): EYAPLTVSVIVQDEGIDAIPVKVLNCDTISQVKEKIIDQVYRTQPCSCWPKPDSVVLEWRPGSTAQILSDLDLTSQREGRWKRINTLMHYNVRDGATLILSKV

[2] = target: T2, human RhoD (residues 8-194) with the Q75L mutation, bound to GMP-PNP (human, UniProt O00212 8-194, Q75L); assay: crystal structure; plexin B2 (1274-1842) and GMP-PNP-loaded RhoD mixed at 1:1 molar ratio, 6 mg/mL; crystals grown for over a month at 20 C in 0.2 M MgCl2, 22% PEG3350, 100 mM MIB pH 6.8; molecular replacement, 3.1 A; two RhoD and two RBD in the asymmetric unit; details: both partners purified
T2 construct: Loaded with the GTP analogue GMP-PNP and Mg2+ before crystallization; His6 tag removed with human rhinovirus 3C protease; also called GMP-PNP-loaded RhoD; source: E. coli BL21 (DE3), purified (HisTrap, anion exchange, Superdex 75); not shown: His6, N-terminal, cleaved
T2 sequence (looked up): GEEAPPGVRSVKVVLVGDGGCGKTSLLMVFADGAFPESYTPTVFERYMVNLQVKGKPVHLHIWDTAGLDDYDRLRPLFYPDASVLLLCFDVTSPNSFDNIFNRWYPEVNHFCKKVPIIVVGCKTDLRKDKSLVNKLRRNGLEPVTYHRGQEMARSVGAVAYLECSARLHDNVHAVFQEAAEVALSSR

Row | Molecule | X-ray crystal structure, 3.1 Å [1] | binding result [2]
1 | Nc1nc2c(ncn2[C@@H]2O[C@H](COP(=O)(O)OP(=O)(O)NP(=O)(O)O)[C@@H](O)[C@H]2O)c(=O)[nH]1 [GMP-PNP, guanosine 5′-[β,γ-imido]triphosphate] | complex of mouse plexin B2 and human RhoD bound to the GTP analogue GMP-PNP | 
2 | mouse plexin B2 RBD (Rho-GTPase-binding domain), as found in the crystal (domain or fragment, UniProt B2RXS4 1463-1565, looked up, Plexin B2, mouse; Expressed as the intracellular region without the juxtamembrane region (residues 1274-1842); it degraded during crystallization and the crystal held only the RBD, built as residues 1463-1509 and 1510-1565; The range is that of the residues modelled in the structure; In the crystal two RBD chains form a domain-swapped dimer (swap between residues 1509 and 1510), which the authors …) EYAPLTVSVIVQDEGIDAIPVKVLNCDTISQVKEKIIDQVYRTQPCSCWPKPDSVVLEWRPGSTAQILSDLDLTSQREGRWKRINTLMHYNVRDGATLILSKV |  | binds
